The test system of this test is rgRSV224 virus. Nature of the test: Antiviral activity: inhibition of rgRSV224 (GFP-expressing RSV) replication in HeLa cells. To be noted: for EC50: human respiratory syncytial virus, HeLa, 72 h. Format: cell-based, respiratory syncytial virus. The protocol:
Black 96-well clear-bottom microtiter plates (Corning, Amsterdam, The Netherlands) were filled in duplicate using a customized robot system with serial 4-fold dilutions of compound in a final volume of 50 μl culture medium [RPMI medium without phenol red, 10% FBS, 0.04% gentamycin (50 mg/ml) and 0.5% DMSO]. Then, 100 μl of a HeLa cell suspension (5×10^4 cells/ml) in culture medium was added to each well followed by the addition of 50 μl rgRSV224 (MOI=0.02) virus in culture medium using a multidrop dispenser (Thermo Scientific, Erembodegem, Belgium). rgRSV224 virus is an engineered virus that includes an additional GFP gene (Hallak et al, 2000) and was in-licensed from the NIH (Bethesda, Md., USA). Medium, virus- and mock-infected controls were included in each test. Cells were incubated at 37° C. in a 5% CO2 atmosphere. Three days post-virus exposure, viral replication was quantified by measuring GFP expression in the cells by a MSM laser microscope (Tibotec, Beerse, Belgium). The EC50 was defined as the 50% inhibitory concentration for GFP expression. In parallel, compounds were incubated for three days in a set of white 96-well microtitier plates (Corning) and the cytotoxicity of compounds in HeLa cells was determined by measuring the ATP content of the cells using the ATPlite kit (PerkinElmer, Zaventem, Belgium) according to the manufacturer's instructions. The CC50 was defined as the 50% concentration for cytotoxicity. SI is calculated as CC50/EC50.

[1] abbreviates: read-out: pEC50, rgRSV224 (MOI=0.02) in HeLa cells, GFP expression three days post-virus exposure (converted).
Setting [2] is: read-out: RSV-wt_pEC50, rgRSV224 (MOI=0.02) in HeLa cells, GFP expression three days post-virus exposure.

As usually defined, the pEC50 is the EC50 on a negative log10 scale, so that one unit is a factor of ten.

Where a name gives a salt, the structure may show the parent alone. Read-outs that look alike come from different tables or passages of the source. A value given as a limit tells only on which side of the number the result lay.

Take `CC(C)(C)OC(=O)N1CCC2(CC1)C(=O)N(Cc1cc3cc(Cl)ccc3n1CCCC#N)c1cnccc12` [Compound 63, tert-butyl 1′-((5-chloro-1-(3-cyanopropyl)-1H-indol-2-yl)-methyl)-2′-oxo-1′,2′-dihydrospiro[piperidine-4,3′-pyrrolo-[2,3-c]pyridine]-1-carboxylate]: the EC50 under setting [1] is 158 pM.
On to `CC(=O)N1CCC2(CC1)C(=O)N(Cc1cc3cc(Cl)ccc3n1CCCC#N)c1cnccc12` [Compound 64, 4-(2-((1-acetyl-2′-oxospiro[piperidine-4,3′-pyrrolo[2,3-c]-pyridin]-1′(2′H)-yl)methyl)-5-chloro-1H-indol-1-yl)butane-nitrile], for which, under setting [1], the EC50 is 251 pM.
The same measure, in the same setting: for `O=C1N(Cc2nc3nc(Cl)ccc3n2CCCC(F)(F)F)c2cnccc2C12CCCC2` [Compound 65, 1′-((5-chloro-1-(4,4,4-trifluorobutyl)-1H-imidazo[4,5-b]-pyridin-2-yl)methyl)spiro[cyclopentane-l,3′-pyrrolo[2,3-c]-pyridin]-2′(1′H)-one] the value was 631 pM; for `CC(C)(C)OC(=O)N1CCC2(CC1)C(=O)N(Cc1nc3ncccc3n1CCCC(F)(F)F)c1cnccc12` [Compound 66, tert-butyl-2′-oxo-1′-((1-(4,4,4-trifluorobutyl)-1H-imidazo-[4,5-b]pyridine-2-yl)methyl)-1′,2′-dihydrospiro[piperidine-4,3′-pyrrolo[2,3-c]pyridine]-1-carboxylate], 3160 pM.
`O=C1N(Cc2nc3nc(Cl)ccc3n2CCCC(F)(F)F)c2cnccc2C12CCOCC2` [Compound 67, 1′-((5-chloro-1-(4,4,4-trifluorobutyl)-1H-imidazo[4,5-b]-pyridin-2-yl)methyl)-2,3,5,6-tetrahydrospiro[pyran-4,3′-pyrrolo[2,3-c]pyridin]-2′(1′H)-one] showed a negative-log EC50 (pEC50) (rgRSV224 (MOI=0.02) in HeLa cells, GFP expression three days post-virus exposure) of 10.3.
Regarding `CC(C)(C)OC(=O)N1CCC2(CC1)C(=O)N(Cc1nc3nc(Cl)ccc3n1CCCC(F)(F)F)c1cnccc12` [Compound 68, tert-butyl-1′-((5-chloro-1-(4,4,4-trifluorobutyl)-1H-imidazo-[4,5-b]pyridin-2-yl)methyl)-2′-oxo-1′,2′-dihydrospiro-[piperidine-4,3′-pyrrolo[2,3-c]pyridine]-1-carboxylate], the EC50 under setting [1] is 501 pM.
For the molecule `CC(C)(C)OC(=O)N1CCC2(CC1)C(=O)N(Cc1cc3nc(Cl)ccc3n1CCCCF)c1cnccc12` [Compound 69, tert-butyl 1′-((5-chloro-1-(4-fluorobutyl)-1H-pyrrolo[3,2-b]-pyridin-2-yl)methy)-2′-oxo-1′,2′-dihydrospiro[piperidine-4,3′-pyrrolo[2,3-c]pyridine]-1-carboxylate], the EC50 under setting [1] was 5010 pM.
In the case of `CC(C)(O)C(=O)N1CCC2(CC1)C(=O)N(Cc1cc3cc(Cl)ccc3n1CCCS(C)(=O)=O)c1cnccc12` [Compound 74, 1′-((5-chloro-1-(3-(methylsulfonyl)propyl)-1H-indol-2-yl)-methyl)-1-(2-hydroxy-2-methylpropanoyl)spiro[piperidine-4,3′-pyrrolo[2,3-c]pyridin]-2′(1′H)-one], under setting [1], the EC50 is 200 pM.
As for `COC(=O)N1CCC2(CC1)C(=O)N(Cc1cc3cc(Cl)ccc3n1CCCC#N)c1cnccc12` [Compound 76], the EC50 under setting [1] was less than 158 pM.
With `CC(C)OC(=O)N1CCC2(CC1)C(=O)N(Cc1cc3cc(Cl)ccc3n1CCCC#N)c1cnccc12` [Compound 77, isopropyl 1′-((5-chloro-1-(3-cyanopropyl)-1H-indol-2-yl)-methyl)-2′-oxo-1′,2′-dihydrospiro[piperidine-4,3′-pyrrolo-[2,3-c]pyridine]-1-carboxylate], the EC50 under setting [1] was less than 158 pM.
Still for that read-out and setting: for `N#CCCCn1c(CN2C(=O)C3(CCNCC3)c3ccncc32)cc2cc(Cl)ccc21` [Compound 78, 4-(5-chloro-2-((2′-oxospiro[piperidine-4,3′-pyrrolo[2,3-c]-pyridin]-1′(2′H)-yl)methyl)-1H-indol-1-yl)butanenitrile hydrochloride] the value was 631 pM; for `N#CCCCn1c(CN2C(=O)C3(CCNCC3)c3ccncc32)nc2cc(Cl)ccc21` [Compound 84, 4-(5-chloro)-2-((2′-oxospiro[piperidine-4,3′-pyrrolo[2,3-c]-pyridin]-1′(2′H)-yl)methyl)-1H-benzo[d]imidazol-1-yl)butanenitrile hydrochloride], 631 pM; for `CC(C)(O)C(=O)N1CCC2(CC1)C(=O)N(Cc1cc3cc(Cl)ccc3n1CCCC#N)c1cnccc12` [Compound 86, 4-(5-chloro-2-((1-(2-hydroxy-2-methylpropanoyl)-2′-oxospiro[piperidine-4,3′-pyrrolo[2,3-c]pyridin]-1′(2′H)-yl)methyl)-1H-indol-1-yl)butanenitrile], less than 158 pM.
In the case of `CC(=O)N1CC2(C1)C(=O)N(Cc1nc3cc(Cl)ccc3n1CCCC#N)c1ccccc12` [Compound 88, 4-(2-((1-acetyl-2′-oxospiro[azetidine-3,3′-indolin]-1′-yl)-methyl)-5-chloro-1H-benzo[d]imidazol-1-yl)butanenitrile], the EC50 under setting [1] is 398 pM.
Still for that read-out and setting: with `N#CCCCn1c(CN2C(=O)C3(CCN(S(N)(=O)=O)CC3)c3ccncc32)nc2cc(Cl)ccc21` [Compound 89, 1′-((5-chloro-1-(3-cyanopropyl)-1H-benzo[d]imidazol-2-yl)-methyl)-2′-oxo-1′,2′-dihydrospiro[piperidine-4,3′-pyrrolo-[2,3-c]pyridine]-1-sulfonamide] the figure was 79.4 pM.
For `N#CCCCn1c(CN2C(=O)C3(CN(S(=O)(=O)c4cccs4)C3)c3ccccc32)nc2cc(Cl)ccc21` [Compound 91], under setting [2], the EC50 is 234 pM.
Take `N#CCCCn1c(CN2C(=O)C3(CN(C(=O)OC4COC4)C3)c3ccccc32)nc2cc(Cl)ccc21` [Compound 92, Oxetan-3-yl 1′-{[5-chloro-1-(3-cyanopropyl)-1H-benzimidazol-2-yl]methyl}-2′-oxo-1′,2′-dihydro-1H-spiro[azetidine-3,3′-indole]-1-carboxylate]: under setting [2], the EC50 is 69.2 pM.
For `N#CCCCn1c(CN2C(=O)C3(CN(S(=O)(=O)c4ccc(F)cc4)C3)c3ccccc32)nc2cc(Cl)ccc21` [Compound 93, 4-[5-Chroro-2-({1-[(4-fluorophenyl)sulfonyl]-2′-oxospiro-[azetidine-3,3′-indol]-1′(2′H)-yl}methyl)-1H-benzimidazol-1-yl]butanenitrile], the EC50 under setting [2] was 1620 pM.
`CC(=O)NS(=O)(=O)N1CCC2(CC1)C(=O)N(Cc1nc3cc(Cl)ccc3n1CCCC#N)c1cnccc12` [Compound 95, N-[(1′-{[5-Chloro-1-(3-cyanopropyl)-1H-benzimidazol-2-yl]methyl}-2′-oxo-1′,2′-dihydro-1H-spiro[piperidine-4,3′-pyrrolo[2,3-c]pyridin]-1-yl)sulfonyl]acetamide]: the EC50 under setting [2] was 79.4 pM.
Still for that read-out and setting: for `N#CCCCn1c(CN2C(=O)C3(CCN(S(=O)(=O)c4cccs4)CC3)c3ccncc32)cc2cc(Cl)ccc21` [Compound 96, 4-(5-Chloro-2-{[2′-oxo-1-(thiophen-2-ylsulfonyl)spiro-[piperidine-4,3′-pyrrolo[2,3-c]pyridin]-1′(2′H)-yl]methyl}-1H-indol-1-yl)butanenitrile] the value was 427 pM.
On to `CC(C)CCn1c(CN2C(=O)C3(CCN(C(=O)OC(C)(C)C)CC3)c3ccncc32)cc2cnccc21` [Compound 97, tert-Butyl 1′-{[1-(3-methylbutyl)-1H-pyrrolo[3,2-c]pyridin-2-yl]methyl}-2′-oxo-1,2′-dihydro-1H-spiro[piperidine-4,3′-pyrrolo[2,3-c]pyridine]-1-carboxylate], for which the EC50 under setting [2] was 1450 pM.
Consider `COC(=O)N1CCC2(CC1)C(=O)N(Cc1nc3cc(Cl)ccc3n1CCCC#N)c1cnccc12` [Compound 98, Methyl 1′-{[5-chloro-1-(3-cyanopropyl)-1H-benzimidazol-2-yl]methyl}-2′-oxo-1′,2′-dihydro-1H-spiro[piperidine-4,3′-pyrrolo[2,3-c]pyridine]-1-carboxylate], for which the EC50 under setting [2] is 67.6 pM.
With `CC(C)OC(=O)N1CCC2(CC1)C(=O)N(Cc1nc3cc(Cl)ccc3n1CCCC#N)c1cnccc12` [Compound 99, 1-Methylethyl 1′-{[5-chloro-1-(3-cyanopropyl)-1H-benzimidazol-2-yl]methyl}-2′-oxo-1′,2′-dihydro-1H-spiro[piperidine-4,3′-pyrrolo[2,3-c]pyridine]-1-carboxylate], the EC50 under setting [2] was 24 pM.
For the molecule `NC(=O)CCCn1c(CN2C(=O)C3(CNC3)c3ccccc32)nc2cc(Cl)ccc21` [Compound 100, 4-{5-Chloro-2-[(2′-oxospiro[azetidine-3,3′-indol]-1′(2′H)-yl)methyl]-1H-benzimidazol-1-yl}butanamide], under setting [2], the EC50 is 263000 pM.
On to `N#CCCCn1c(CN2C(=O)C3(CNC3)c3ccccc32)nc2cc(Cl)ccc21` [Compound 101, 4-{5-Chloro-2-[(2′-oxospiro[azetidine-3,3′-indol]-1′(2′H)-yl)methyl]-1H-benzimidazol-1-yl}butanenitrile], for which the EC50 under setting [2] was 891 pM.

These data come from patent publication US9617289B2, “RSV antiviral compounds” (JANSSEN R&D IRELAND, priority 2012, dated 2017).
